According to publication PMC4538566 (Journal of Medicinal Chemistry, 2015):
Blank lines part the entries; values can stand above or below the molecule they belong to.

Experiments:
[1] = In situ rat perfusion; type: in vivo; conditions: 100 μM; for Ka1 absorption rate coefficient: six independent experiments
[2] = Caco-2 cell monolayers transport assay; type: in vitro ADME; conditions: human, Caco-2
[3] = system: leukemia Jurkat-T; type: cell-based, human; conditions: read-out: IC50 Jurkat; 24 h incubation, MTT, mean ± SD (n = 4)
[4] = system: lung A549; type: cell-based, human; conditions: read-out: IC50 A549; 24 h incubation, MTT, mean ± SD (n = 4)
[5] = system: prostate DU-145; type: cell-based, human; conditions: read-out: IC50 DU-145; 24 h incubation, MTT, mean ± SD (n = 4)
[6] = system: pancreas MiaPaca2; type: cell-based, human; conditions: read-out: IC50 MiaPaca2; 24 h incubation, MTT, mean ± SD (n = 4)
[7] = system: triple-negative breast MDA-MB-231; type: cell-based, human; conditions: read-out: IC50 MDA-MB-231; 24 h incubation, MTT, mean ± SD (n = 4)
[8] = system: non-tumorigenic human embryonic kidney cells HEK293T; type: cell-based; conditions: read-out: IC50 HEK-293T; 24 h incubation, MTT, mean ± SD (n = 4)
[9] = system: plasmid (pBR322) DNA; test: Electrophoresis mobility shift assay with plasmid DNA; type: binding; conditions: 37 °C, 20 h, metal/DNAbp ratios 0.25–2.0
[10] = system: Caco-2 monolayers; test: Caco-2 cell monolayers transport assay; type: in vitro ADME; conditions: Caco-2 monolayers, 20 μM, three independent experiments

Molecule: N.N.[Cl][Pt][Cl] [cisplatin]
- IC50 [3]: 10.8 ± 1.2 µM
- IC50 [4]: 114 ± 9.1 µM
- IC50 [5]: 112 ± 33 µM
- IC50 [6]: 76.5 ± 7.4 µM
- IC50 [7]: 131 ± 18 µM
- IC50 [8]: 69 ± 6.7 µM
- effect on electrophoretic mobility of plasmid forms [9]: able to both increase and decrease the mobility of the OC and the CCC forms

Molecule: Lucifer Yellow
- Peff [10]: 1.90 × 10^–7 cm/s

Results, then the molecule that gave them:

- Peff [1]: 5.19 × 10^–6 cm/s
Molecule: CC(C)NCC(O)COc1ccc(CC(N)=O)cc1 (stereo not drawn) [atenolol]

- Papp at 90 min, 20 μM [2]: 1.86 ×10⁻⁶ cm/s
- Peff [1]: 3.97 × 10^–5 cm/s
- Ka1 absorption rate coefficient [1]: 1.68 h^–1
Molecule: CN/C(=N/CCSCc1nc[nH]c1C)NC#N [cimetidine]

- Papp at 90 min, 20 μM [2]: 23.2 ×10⁻⁶ cm/s
- Peff [1]: 5.40 × 10^–5 cm/s
- Ka1 absorption rate coefficient [1]: 2.30 h^–1
Molecule: COCCc1ccc(OCC(O)CNC(C)C)cc1 (stereo not drawn) [metoprolol]
